Results taken from patent publication US20240317777A1, “NOVEL MACROCYCLIC AMINOPYRAZOLE COMPOUNDS AS CDK2 INHIBITORS” (Accutar Biotechnology Inc., priority 2023, published 2024).

Columns and labels:
Format in all cases: cell-based
[1] = system: CCNE1-amplified OVCAR3 cells; test: Cell growth inhibition of CCNE1-amplified OVCAR3 cells (CellTiter-Glo); conditions: Homo sapiens, OVCAR-3, 144 h, 6 days
Method: Cell Growth Inhibition of CCNE1-Amplified OVCAR3 Cells
(§1) OVCAR3 cells were seeded in 96-well plates at 2000 cells/well in 90 μl of RPM11640 growth medium containing 10% FBS and 1% Penicillin Streptomycin, and then incubated at 37° C. overnight. The following day, the test compound was administered to the cells by using 1000× compound stock solution prepared in DMSO at various concentrations. 1000× compound stock solution was first diluted in culturing medium to 10x, then 10 uL compound medium was added to each well in the cell plates. After administration of the compound, the cells were then incubated at 37° C. for 6 days. Upon completion, the plates were equilibrated at room temperature for approximately 10 minutes. 100 ul of CellTiter-Glo® Reagent (Promega) was added to each well. The plates were then incubated at room temperature for 10 minutes and luminescence was recorded by EnSpire plate reader (PerkinElmer).

[2] = system: Phospho-Rb (Ser807/811) in OVCAR3 cells; test: Phospho-Rb expression inhibition in OVCAR3 cells quantified by In Cell Western; conditions: Homo sapiens, OVCAR-3, 24 hours, read-out: OVCAR-3 pRb IC50
Method: Phospho-Rb Expression Inhibition in OVCAR3 Cells Quantified by in Cell Western
OVCAR3 cells were obtained from American Type Culture Collection (ATCC, HTB-161). OVCAR3 cells were plated in 96-well plates (VWR #10062-900, or Corning #3904) in 90 uL culture medium at a density of 20,000 cells/well in the RPM11640 growth medium containing 10% FBS and 1% Penicillin Streptomycin, and then incubated at 37° C. overnight. The following day, the test compound was administered to the cells by using 1000× compound stock solution prepared in DMSO at various concentrations. 1000× compound stock solution was first diluted in culturing medium to 10x, then 10 uL compound medium was added to each well in the cell plates. After administration of the compound, the cells were then incubated at 37° C. for 24 hours. Upon completion, the cells were washed with PBS briefly. 150 uL/well of 4% formaldehyde was added and the plates were incubated at room temperature for 20 mins. The cells were washed with PBS briefly, and permeabilized with 150 uL/well of ice cold 100% methanol for 10 mins. The cells were washed with PBS briefly and blocked with 100 uL/well LI-COR blocking buffer for 1 hr at room temperature with gentle shaking. The cells were incubated overnight at 4° C. with 50 uL primary antibody rabbit anti-Phospho-Rb (Ser807/811) (1:500, Cell Signaling, #8516) and anti-Rb (1:200, Santa Cruz, sc-73598) diluted in Intercept Blocking Buffer (LI-COR, #927-60001) containing 0.1% Tween 20. The next day, the cells were washed with 200 uL PBS containing 0.1% Tween 20, 5×5 mins at room temperature with gentle shaking, and incubated with 50 uL secondary antibody, IRDye® 800CW Goat anti-Rabbit IgG (1:1000, LI-COR, #926-32211) and IRDye® 680RD Goat anti-Mouse IgG (1:1000, LI-COR, #926-68070), in LI-COR blocking buffer with 0.2% Tween 20 for 1 hr at room temperature with gentle shaking. The cells were washed with 200 uL PBS containing 0.1% Tween 20, 5×5 mins at room temperature with gentle shaking. The cells were washed with PBS for 5 mins. 100 uL fresh PBS was added to each well and the plates were imaged on a LI-COR Odyssey CLX plate reader.

CCNE1-normal SKOV3 cells = test: Cell growth inhibition of CCNE1-normal SKOV3 cells (CellTiter-Glo); conditions: Homo sapiens, SK-OV-3, 144 h, 6 days
Method: Cell Growth Inhibition of CCNE1-Normal SKOV3 Cells
as §1, with “SKOV3 cells were obtained from American Type Culture Collection (ATCC, HTB-77). SKOV3” for “OVCAR3”, “1000” for “2000”

Row | SMILES | IC50 [1] [nM] | IC50 [2] [nM] | IC50 (CCNE1-normal SKOV3 cells) [nM]
1 | O=C1NC23CC(CCCc4cc(cc(C(F)F)n4)Nc4cc(n[nH]4)[C@H]4CC[C@H](C4)O1)(C2)C3 [Compound 98, (1^1S,1^3R,Z)-4^6-(difluoromethyl)-2^1H-11-oxa-3,9-diaza-4(4,2)-pyridina-2(3,5)-pyrazola-8(1,3)-bicyclo[1.1.1]pentana-1(1,3)-cyclopentanacycloundecaphan-10-one] | ≤ 2 | ≤ 2 | 10 to 50
2 | C[C@@H]1/C=C/COc2cc(ccn2)Nc2cc(n[nH]2)[C@H]2CC[C@H](C2)OC(=O)N1 [Compound 138, (1^1S,1^3R,2^4Z,7E,9R)-9-methyl-2^1H-5,12-dioxa-3,10-diaza-4(4,2)-pyridina-2(3,5)-pyrazola-1(1,3)-cyclopentanacyclododecaphan-7-en-11-one] | 50 to 250 | 10 to 50 | > 1250
3 | C[C@H]1CCCOc2cc(c(F)cn2)Nc2cc(n[nH]2)[C@H]2CC[C@H](C2)OC(=O)N1 [Compound 174, (1^1S,1^3R,9S,Z)-4^5-fluoro-9-methyl-2^1H-5,12-dioxa-3,10-diaza-4(4,2)-pyridina-2(3,5)-pyrazola-1(1,3)-cyclopentanacyclododecaphan-11-one] | 50 to 250 | 50 to 250 | > 1250
4 | C[C@H]1CCCOc2nccc(c2F)Nc2cc(n[nH]2)[C@H]2CC[C@H](C2)OC(=O)N1 [Compound 176, (1^1S,1^3R,9S,Z)-4^3-fluoro-9-methyl-2^1H-5,12-dioxa-3,10-diaza-4(4,2)-pyridina-2(3,5)-pyrazola-1(1,3)-cyclopentanacyclododecaphan-11-one] | 10 to 50 | 2 to 10 | 250 to 1250
5 | [2H]C1([2H])CC[C@H](C)NC(=O)O[C@@H]2CC[C@@H](C2)c2cc([nH]n2)Nc2cc(F)nc(c2)O1 [Compound 179, (1^1S,1^3R,9S,Z)-4^6-fluoro-9-methyl-2^1H-5,12-dioxa-3,10-diaza-4(4,2)-pyridina-2(3,5)-pyrazola-1(1,3)-cyclopentanacyclododecaphan-11-one-6,6-d2] | 50 to 250 | 10 to 50 | > 1250
6 | [2H]C1([2H])CC(F)(F)[C@H](C)NC(=O)O[C@@H]2CC[C@@H](C2)c2cc([nH]n2)Nc2ccnc(c2)O1 [Compound 182, (1^1S,1^3R,9S,Z)-8,8-difluoro-9-methyl-2^1H-5,12-dioxa-3,10-diaza-4(4,2)-pyridina-2(3,5)-pyrazola-1(1,3)-cyclopentanacyclododecaphan-11-one-6,6-d2] | 10 to 50 | 2 to 10 | 250 to 1250
7 | C[C@@H]1NC(=O)O[C@@H]2CC[C@@H](C2)c2n[nH]c(c2F)Nc2ccnc(c2)OCCC1(F)F [Compound 188, (1^1S,1^3R,9S,E)-2^4,8,8-trifluoro-9-methyl-2^1H-5,12-dioxa-3,10-diaza-4(4,2)-pyridina-2(3,5)-pyrazola-1(1,3)-cyclopentanacyclododecaphan-11-one] | 50 to 250 | 10 to 50 | > 1250

Second part, led by results:

Row | IC50 [1] [nM] | IC50 [2] [nM] | SMILES | IC50 (CCNE1-normal SKOV3 cells) [nM]
8 | 2 to 10 | ≤ 2 | C[C@H]1CCC(C)(C)NC(=O)O[C@@H]2CC[C@@H](C2)c2cc([nH]n2)Nc2ccnc(c2)O1 [Compound 113, (1^1S,1^3R,6S,Z)-6,9,9-trimethyl-2^1H-5,12-dioxa-3,10-diaza-4(4,2)-pyridina-2(3,5)-pyrazola-1(1,3)-cyclopentanacyclododecaphan-11-one] | 10 to 50
9 | ≤ 2 | ≤ 2 | O=C1NC23CC(CCCc4cncc(c4)Nc4cc(n[nH]4)[C@H]4CC[C@H](C4)O1)(C2)C3 [Compound 118, (1^1S,1^3R,Z)-2^1H-11-oxa-3,9-diaza-4(3,5)-pyridina-2(3,5)-pyrazola-8(1,3)-bicyclo[1.1.1]pentana-1(1,3)-cyclopentanacycloundecaphan-10-one] | 10 to 50
10 | 2 to 10 | ≤ 2 | C[C@H]1CCC(C)(C)NC(=O)O[C@@H]2CC[C@@H](C2)c2cc([nH]n2)Nc2cncc(c2)O1 [Compound 124, (1^1S,1^3R,6S,Z)-6,9,9-trimethyl-2^1H-5,12-dioxa-3,10-diaza-4(3,5)-pyridina-2(3,5)-pyrazola-1(1,3)-cyclopentanacyclododecaphan-11-one] | 10 to 50
11 | 2 to 10 | ≤ 2 | O=C1NC2CC(CCc3cncc(c3)Nc3cc(n[nH]3)[C@H]3CC[C@H](C3)O1)C2 [Compound 141, (1^1S,1^3R,7^1R,7^3R,Z)-2^1H-10-oxa-3,8-diaza-4(3,5)-pyridina-2(3,5)-pyrazola-1(1,3)-cyclopentana-7(1,3)-cyclobutanacyclodecaphan-9-one] | 50 to 250
12 | 10 to 50 | 2 to 10 | O=C1NC2(CCCCc3cncc(c3)Nc3cc(n[nH]3)[C@H]3CC[C@H](C3)O1)CC2 [Compound 142, (1′S,3′R,Z)-spiro[cyclopropane-1,9′-12-oxa-3,10-diaza-4(3,5)-pyridina-2(3,5)-pyrazola-1(1,3)-cyclopentanacyclododecaphan]-11′-one] | 250 to 1250
13 | 50 to 250 | 50 to 250 | C[C@@H]1Oc2cc(ccn2)Nc2cc(n[nH]2)[C@H]2CC[C@H](C2)OC(=O)N[C@H]2C[C@@H]1C2 [Compound 145, (1^1S,1^3R,7^1S,7^3R,6S,Z)-6-methyl-2^1H-5,10-dioxa-3,8-diaza-4(4,2)-pyridina-2(3,5)-pyrazola-1(1,3)-cyclopentana-7(1,3)-cyclobutanacyclodecaphan-9-one] | > 1250
14 | 50 to 250 | 50 to 250 | C[C@H]1Oc2cncc(c2)Nc2cc(n[nH]2)[C@H]2CC[C@H](C2)OC(=O)N[C@H]2C[C@@H]1C2 [Compound 147, (1^1S,1^3R,7^1S,7^3S,6R,Z)-6-methyl-2^1H-5,10-dioxa-3,8-diaza-4(3,5)-pyridina-2(3,5)-pyrazola-1(1,3)-cyclopentana-7(1,3)-cyclobutanacyclodecaphan-9-one] | > 1250
15 | 10 to 50 | 2 to 10 | C[C@H]1C/C=C\C(F)(F)c2cc(ccn2)Nc2cc(n[nH]2)[C@H]2CC[C@H](C2)OC(=O)N1 [Compound 167, (1^1S,1^3R,2^4Z,9S)-5,5-difluoro-9-methyl-2^1H-12-oxa-3,10-diaza-4(4,2)-pyridina-2(3,5)-pyrazola-1(1,3)-cyclopentanacyclododecaphan-6-en-11-one] | 250 to 1250
16 | 50 to 250 | 10 to 50 | C[C@@H]1C/C=C\C(F)(F)c2cc(ccn2)Nc2cc(n[nH]2)[C@H]2CC[C@H](C2)OC(=O)N1 [Compound 168, (1^1S,1^3R,2^4Z,9R)-5,5-difluoro-9-methyl-2^1H-12-oxa-3,10-diaza-4(4,2)-pyridina-2(3,5)-pyrazola-1(1,3)-cyclopentanacyclododecaphan-6-en-11-one] | > 1250
17 | 2 to 10 | ≤ 2 | O=C1NC2CC(COc3cncc(c3)Nc3cc(n[nH]3)[C@H]3CC[C@H](C3)O1)C2 [Compound 171, (1^1S,1^3R,7^1R,7^3S,Z)-2^1H-5,10-dioxa-3,8-diaza-4(3,5)-pyridina-2(3,5)-pyrazola-1(1,3)-cyclopentana-7(1,3)-cyclobutanacyclodecaphan-9-one] | 250 to 1250
